PubChem BioAssay (NCI)
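Five compound concentrations were applied to cells in 96-well plates for 48 hours; endpoints were derived by simple linear interpolation of the resulting dose-response curve. GI50 = concentration required for 50% inhibition of growth. TGI marks complete inhibition of growth.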

Tests used:
Assay in all cases: NCI-60 cell line screen, 48 h
UACC-257 melanoma = test system: UACC-257 melanoma
IGROV1 ovarian = test system: IGROV1 ovarian
HOP-62 NSCLC = test system: HOP-62 NSCLC
A549 NSCLC = test system: A549 NSCLC
HOP-92 NSCLC = test system: HOP-92 NSCLC
SNB-19 CNS = test system: SNB-19 CNS
SK-MEL-2 melanoma = test system: SK-MEL-2 melanoma
BT-549 breast = test system: BT-549 breast
NCI-H522 lung = test system: NCI-H522 lung
OVCAR-8 ovarian = test system: OVCAR-8 ovarian
UO-31 renal = test system: UO-31 renal
LOX IMVI melanoma = test system: LOX IMVI melanoma
HCT-116 colon = test system: HCT-116 colon
T-47D breast = test system: T-47D breast
MDA-MB-231 breast = test system: MDA-MB-231 breast
ACHN renal = test system: ACHN renal
A498 renal = test system: A498 renal
SR leukemia = test system: SR leukemia
OVCAR-5 ovarian = test system: OVCAR-5 ovarian
MOLT-4 leukemia = test system: MOLT-4 leukemia
NCI-H460 lung = test system: NCI-H460 lung
SF-295 CNS = test system: SF-295 CNS
SF-268 CNS = test system: SF-268 CNS
SK-MEL-28 melanoma = test system: SK-MEL-28 melanoma
EKVX NSCLC = test system: EKVX NSCLC
RXF 393 renal = test system: RXF 393 renal
NCI-H226 lung = test system: NCI-H226 lung
TK-10 renal = test system: TK-10 renal
CCRF-CEM leukemia = test system: CCRF-CEM leukemia
SK-MEL-5 melanoma = test system: SK-MEL-5 melanoma
HCC-2998 colon = test system: HCC-2998 colon
NCI/ADR-RES ovarian = test system: NCI/ADR-RES ovarian
OVCAR-3 ovarian = test system: OVCAR-3 ovarian
OVCAR-4 ovarian = test system: OVCAR-4 ovarian
RPMI-8226 leukemia = test system: RPMI-8226 leukemia
COLO 205 colon = test system: COLO 205 colon
DU-145 prostate = test system: DU-145 prostate
U251 CNS = test system: U251 CNS
MCF7 breast = test system: MCF7 breast
PC-3 prostate = test system: PC-3 prostate
MDA-MB-435 = test system: MDA-MB-435
SK-OV-3 ovarian = test system: SK-OV-3 ovarian
786-0 renal = test system: 786-0 renal
CAKI-1 renal = test system: CAKI-1 renal
UACC-62 melanoma = test system: UACC-62 melanoma
SF-539 CNS = test system: SF-539 CNS
K-562 leukemia = test system: K-562 leukemia
KM12 colon = test system: KM12 colon
SN12C renal = test system: SN12C renal
SW-620 colon = test system: SW-620 colon
HT29 colon = test system: HT29 colon
HL-60(TB) leukemia = test system: HL-60(TB) leukemia
SNB-75 CNS = test system: SNB-75 CNS
M14 melanoma = test system: M14 melanoma
NCI-H23 lung = test system: NCI-H23 lung
HS 578T breast = test system: HS 578T breast
HCT-15 colon = test system: HCT-15 colon

Question: What does the source list for CCCn1cnc2c(c1=N)C(c1ccc(OC)cc1)c1sc3c(C)cccc3c1O2 (stereo not given)?
Answer: GI50 (UACC-257 melanoma): 12.9 µM; TGI (UACC-257 melanoma): 35.5 µM; GI50 (IGROV1 ovarian): 0.472 µM; TGI (IGROV1 ovarian): 13.9 µM; GI50 (HOP-62 NSCLC): 0.406 µM; TGI (HOP-62 NSCLC): 16.7 µM; GI50 (A549 NSCLC): 0.717 µM; TGI (A549 NSCLC): 18.1 µM; GI50 (HOP-92 NSCLC): 1.18 µM; TGI (HOP-92 NSCLC): 16.6 µM; GI50 (SNB-19 CNS): 0.49 µM; TGI (SNB-19 CNS): 16 µM; GI50 (SK-MEL-2 melanoma): 0.719 µM; TGI (SK-MEL-2 melanoma): 21 µM; GI50 (BT-549 breast): 1.35 µM; TGI (BT-549 breast): 12.7 µM; GI50 (NCI-H522 lung): 0.409 µM; TGI (NCI-H522 lung): 7.59 µM; GI50 (OVCAR-8 ovarian): 0.564 µM; TGI (OVCAR-8 ovarian): 18.8 µM; GI50 (UO-31 renal): 0.406 µM; TGI (UO-31 renal): 16.5 µM; GI50 (LOX IMVI melanoma): 0.656 µM; TGI (LOX IMVI melanoma): 12.3 µM; GI50 (HCT-116 colon): 0.4 µM; TGI (HCT-116 colon): 10.9 µM; GI50 (T-47D breast): 0.527 µM; TGI (T-47D breast): 30.4 µM; GI50 (MDA-MB-231 breast): 1.15 µM; TGI (MDA-MB-231 breast): 15.9 µM; GI50 (ACHN renal): 0.604 µM; TGI (ACHN renal): 15.2 µM; GI50 (A498 renal): 0.317 µM; TGI (A498 renal): 1.03 µM; GI50 (SR leukemia): 0.349 µM; GI50 (OVCAR-5 ovarian): 1.16 µM; TGI (OVCAR-5 ovarian): 15 µM; GI50 (MOLT-4 leukemia): 0.569 µM; TGI (MOLT-4 leukemia): 12.7 µM; GI50 (NCI-H460 lung): 0.381 µM; TGI (NCI-H460 lung): 10.5 µM; GI50 (SF-295 CNS): 0.368 µM; TGI (SF-295 CNS): 11.6 µM; GI50 (SF-268 CNS): 0.787 µM; TGI (SF-268 CNS): 14.9 µM; GI50 (SK-MEL-28 melanoma): 3.34 µM; TGI (SK-MEL-28 melanoma): 21.6 µM; GI50 (EKVX NSCLC): 0.598 µM; TGI (EKVX NSCLC): 20.4 µM; GI50 (RXF 393 renal): 0.215 µM; TGI (RXF 393 renal): 0.603 µM; GI50 (NCI-H226 lung): 0.419 µM; TGI (NCI-H226 lung): 9.6 µM; GI50 (TK-10 renal): 8.09 µM; TGI (TK-10 renal): 33.9 µM; GI50 (CCRF-CEM leukemia): 0.355 µM; GI50 (SK-MEL-5 melanoma): 0.411 µM; TGI (SK-MEL-5 melanoma): 12.5 µM; GI50 (HCC-2998 colon): 0.886 µM; TGI (HCC-2998 colon): 4.91 µM; GI50 (NCI/ADR-RES ovarian): 0.359 µM; TGI (NCI/ADR-RES ovarian): 12.4 µM; GI50 (OVCAR-3 ovarian): 0.379 µM; TGI (OVCAR-3 ovarian): 5.92 µM; GI50 (OVCAR-4 ovarian): 1.61 µM; TGI (OVCAR-4 ovarian): 20.7 µM; GI50 (RPMI-8226 leukemia): 0.369 µM; TGI (RPMI-8226 leukemia): 4.45 µM; GI50 (COLO 205 colon): 0.592 µM; TGI (COLO 205 colon): 4.92 µM; GI50 (DU-145 prostate): 0.453 µM; TGI (DU-145 prostate): 15.2 µM; GI50 (U251 CNS): 0.445 µM; TGI (U251 CNS): 12.9 µM; GI50 (MCF7 breast): 0.303 µM; TGI (MCF7 breast): 12.9 µM; GI50 (PC-3 prostate): 0.415 µM; TGI (PC-3 prostate): 16 µM; GI50 (MDA-MB-435): 0.187 µM; TGI (MDA-MB-435): 0.484 µM; GI50 (SK-OV-3 ovarian): 0.657 µM; TGI (SK-OV-3 ovarian): 22.2 µM; GI50 (786-0 renal): 0.523 µM; TGI (786-0 renal): 14.4 µM; GI50 (CAKI-1 renal): 0.208 µM; TGI (CAKI-1 renal): 15 µM; GI50 (UACC-62 melanoma): 0.439 µM; TGI (UACC-62 melanoma): 15 µM; GI50 (SF-539 CNS): 0.301 µM; TGI (SF-539 CNS): 1.27 µM; GI50 (K-562 leukemia): 0.261 µM; TGI (K-562 leukemia): 5.52 µM; GI50 (KM12 colon): 0.474 µM; TGI (KM12 colon): 12 µM; GI50 (SN12C renal): 0.635 µM; TGI (SN12C renal): 15.5 µM; GI50 (SW-620 colon): 0.517 µM; TGI (SW-620 colon): 17.3 µM; GI50 (HT29 colon): 0.557 µM; TGI (HT29 colon): 13.7 µM; GI50 (HL-60(TB) leukemia): 0.292 µM; TGI (HL-60(TB) leukemia): 2.68 µM; GI50 (SNB-75 CNS): 0.209 µM; TGI (SNB-75 CNS): 1.7 µM; GI50 (M14 melanoma): 0.401 µM; TGI (M14 melanoma): 12.5 µM; GI50 (NCI-H23 lung): 0.535 µM; TGI (NCI-H23 lung): 14.2 µM; GI50 (HS 578T breast): 0.381 µM; TGI (HS 578T breast): 8.87 µM; GI50 (HCT-15 colon): 0.408 µM; TGI (HCT-15 colon): 8.68 µM

Question: Which results are given for Cc1[nH]c(C(=O)Nc2ccccc2OCc2cccc(C(=O)NC3CCCNC3)c2)c(Cl)c1Cl (stereo not given)?
Answer: GI50 (BT-549 breast): 2.63 µM; TGI (BT-549 breast): 9.75 µM; GI50 (MDA-MB-231 breast): 1.75 µM; TGI (MDA-MB-231 breast): 3.38 µM; GI50 (ACHN renal): 1.66 µM; TGI (ACHN renal): 3.11 µM; GI50 (A498 renal): 1.8 µM; TGI (A498 renal): 5.59 µM; GI50 (OVCAR-5 ovarian): 1.64 µM; TGI (OVCAR-5 ovarian): 3.06 µM; GI50 (RXF 393 renal): 1.48 µM; TGI (RXF 393 renal): 3.1 µM; GI50 (NCI-H226 lung): 2.01 µM; TGI (NCI-H226 lung): 5.31 µM; GI50 (SK-MEL-5 melanoma): 1.71 µM; TGI (SK-MEL-5 melanoma): 3.11 µM; GI50 (HCC-2998 colon): 2.01 µM; TGI (HCC-2998 colon): 3.73 µM; GI50 (NCI/ADR-RES ovarian): 2.96 µM; TGI (NCI/ADR-RES ovarian): 9.88 µM; GI50 (MDA-MB-435): 1.74 µM; TGI (MDA-MB-435): 3.24 µM; GI50 (SK-OV-3 ovarian): 8.91 µM; TGI (SK-OV-3 ovarian): 26.9 µM; GI50 (SF-539 CNS): 1.69 µM; TGI (SF-539 CNS): 3.15 µM; GI50 (SN12C renal): 1.9 µM; TGI (SN12C renal): 3.72 µM
